From ChEMBL document CHEMBL1141862, “Pyrimido-oxazepine as a versatile template for the development of inhibitors of specific kinases” (Bioorg Med Chem Lett, 2005)
Activity calls are given as the source filed them. No cut-off for these calls is given here.

Tests used:
[1] = target: T1, Receptor-type tyrosine-protein kinase FLT3 (Homo sapiens, UniProt P36888); test: Inhibitory activity against FLT3 kinase in a HTRF assay
T1 sequence (P36888 whole entry): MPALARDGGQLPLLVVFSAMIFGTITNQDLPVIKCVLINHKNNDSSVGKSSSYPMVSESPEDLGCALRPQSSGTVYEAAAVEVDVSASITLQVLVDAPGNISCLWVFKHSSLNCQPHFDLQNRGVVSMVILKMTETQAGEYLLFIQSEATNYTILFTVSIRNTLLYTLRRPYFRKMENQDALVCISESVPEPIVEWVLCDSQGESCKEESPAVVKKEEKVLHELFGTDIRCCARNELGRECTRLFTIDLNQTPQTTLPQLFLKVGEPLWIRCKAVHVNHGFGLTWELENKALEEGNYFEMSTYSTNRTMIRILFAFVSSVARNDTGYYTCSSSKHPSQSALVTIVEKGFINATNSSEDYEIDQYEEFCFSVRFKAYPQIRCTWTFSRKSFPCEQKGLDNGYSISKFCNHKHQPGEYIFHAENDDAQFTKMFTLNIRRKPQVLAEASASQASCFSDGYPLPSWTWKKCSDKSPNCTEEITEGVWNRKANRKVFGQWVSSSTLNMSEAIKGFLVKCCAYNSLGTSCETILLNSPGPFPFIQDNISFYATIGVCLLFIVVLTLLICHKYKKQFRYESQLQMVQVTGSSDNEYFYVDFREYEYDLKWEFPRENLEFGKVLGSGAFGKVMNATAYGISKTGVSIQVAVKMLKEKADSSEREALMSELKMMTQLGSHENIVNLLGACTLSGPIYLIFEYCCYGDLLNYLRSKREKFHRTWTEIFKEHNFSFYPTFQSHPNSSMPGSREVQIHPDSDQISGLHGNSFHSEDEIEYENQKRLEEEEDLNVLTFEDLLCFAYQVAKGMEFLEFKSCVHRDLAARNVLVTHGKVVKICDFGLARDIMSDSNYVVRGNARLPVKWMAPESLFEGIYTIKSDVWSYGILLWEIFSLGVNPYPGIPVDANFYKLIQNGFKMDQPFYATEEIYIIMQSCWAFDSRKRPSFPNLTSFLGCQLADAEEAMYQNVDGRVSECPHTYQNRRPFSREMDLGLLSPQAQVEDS

Aurora kinase A = target: T2, Aurora kinase A (Homo sapiens, UniProt O14965); test: Inhibitory activity against Aurora A kinase
T2 sequence (O14965 whole entry): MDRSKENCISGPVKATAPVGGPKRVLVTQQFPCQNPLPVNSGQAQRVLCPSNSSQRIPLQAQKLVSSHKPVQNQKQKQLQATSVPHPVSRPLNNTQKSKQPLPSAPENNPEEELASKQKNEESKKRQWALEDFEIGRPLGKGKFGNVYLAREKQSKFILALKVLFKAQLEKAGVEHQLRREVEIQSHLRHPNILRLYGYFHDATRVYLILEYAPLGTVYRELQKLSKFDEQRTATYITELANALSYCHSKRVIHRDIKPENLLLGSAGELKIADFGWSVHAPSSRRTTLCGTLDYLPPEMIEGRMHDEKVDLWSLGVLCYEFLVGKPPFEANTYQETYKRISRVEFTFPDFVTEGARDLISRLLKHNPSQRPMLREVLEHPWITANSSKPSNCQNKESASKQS

[2] = target: Epidermal growth factor receptor (Homo sapiens) (UniProt P00533); test: Inhibitory activity against EGFR at 25 uM
Chain of Epidermal growth factor receptor (Homo sapiens) (P00533 whole entry): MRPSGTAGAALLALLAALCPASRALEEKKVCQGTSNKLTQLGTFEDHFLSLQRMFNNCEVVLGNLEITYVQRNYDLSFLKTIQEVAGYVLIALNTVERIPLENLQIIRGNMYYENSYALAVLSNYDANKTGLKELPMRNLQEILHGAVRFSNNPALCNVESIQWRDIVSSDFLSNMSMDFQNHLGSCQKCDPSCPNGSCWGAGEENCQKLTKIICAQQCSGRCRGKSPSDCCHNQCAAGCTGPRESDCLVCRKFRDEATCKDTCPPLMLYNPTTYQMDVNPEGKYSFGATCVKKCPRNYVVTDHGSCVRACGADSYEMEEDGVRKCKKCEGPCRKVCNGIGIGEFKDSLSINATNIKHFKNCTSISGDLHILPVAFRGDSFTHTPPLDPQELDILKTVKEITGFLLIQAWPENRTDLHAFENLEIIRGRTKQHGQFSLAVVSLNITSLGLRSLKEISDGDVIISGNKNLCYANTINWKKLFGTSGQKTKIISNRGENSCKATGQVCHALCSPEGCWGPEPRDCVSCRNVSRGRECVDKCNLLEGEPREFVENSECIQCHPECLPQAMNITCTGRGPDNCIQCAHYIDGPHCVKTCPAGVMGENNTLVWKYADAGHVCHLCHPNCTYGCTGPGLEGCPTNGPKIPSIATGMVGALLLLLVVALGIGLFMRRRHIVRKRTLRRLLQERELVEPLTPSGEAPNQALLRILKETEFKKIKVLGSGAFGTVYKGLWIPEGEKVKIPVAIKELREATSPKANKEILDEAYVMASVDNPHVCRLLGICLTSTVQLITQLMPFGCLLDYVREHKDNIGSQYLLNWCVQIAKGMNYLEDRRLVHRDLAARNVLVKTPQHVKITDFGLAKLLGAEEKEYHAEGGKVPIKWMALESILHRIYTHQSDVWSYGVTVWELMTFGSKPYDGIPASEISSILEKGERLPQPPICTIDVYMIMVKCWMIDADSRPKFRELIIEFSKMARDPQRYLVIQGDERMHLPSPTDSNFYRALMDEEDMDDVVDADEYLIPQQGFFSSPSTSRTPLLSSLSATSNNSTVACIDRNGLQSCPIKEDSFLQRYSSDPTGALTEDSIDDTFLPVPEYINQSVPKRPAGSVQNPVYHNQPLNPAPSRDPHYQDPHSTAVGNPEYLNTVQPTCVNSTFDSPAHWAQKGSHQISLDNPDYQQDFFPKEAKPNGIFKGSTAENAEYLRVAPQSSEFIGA

[3] = target: Insulin-like growth factor 1 receptor (Homo sapiens) (UniProt P08069); test: Inhibitory activity against IGF1R at 25 uM
Chain of Insulin-like growth factor 1 receptor (Homo sapiens) (P08069 31-736 limits assumed): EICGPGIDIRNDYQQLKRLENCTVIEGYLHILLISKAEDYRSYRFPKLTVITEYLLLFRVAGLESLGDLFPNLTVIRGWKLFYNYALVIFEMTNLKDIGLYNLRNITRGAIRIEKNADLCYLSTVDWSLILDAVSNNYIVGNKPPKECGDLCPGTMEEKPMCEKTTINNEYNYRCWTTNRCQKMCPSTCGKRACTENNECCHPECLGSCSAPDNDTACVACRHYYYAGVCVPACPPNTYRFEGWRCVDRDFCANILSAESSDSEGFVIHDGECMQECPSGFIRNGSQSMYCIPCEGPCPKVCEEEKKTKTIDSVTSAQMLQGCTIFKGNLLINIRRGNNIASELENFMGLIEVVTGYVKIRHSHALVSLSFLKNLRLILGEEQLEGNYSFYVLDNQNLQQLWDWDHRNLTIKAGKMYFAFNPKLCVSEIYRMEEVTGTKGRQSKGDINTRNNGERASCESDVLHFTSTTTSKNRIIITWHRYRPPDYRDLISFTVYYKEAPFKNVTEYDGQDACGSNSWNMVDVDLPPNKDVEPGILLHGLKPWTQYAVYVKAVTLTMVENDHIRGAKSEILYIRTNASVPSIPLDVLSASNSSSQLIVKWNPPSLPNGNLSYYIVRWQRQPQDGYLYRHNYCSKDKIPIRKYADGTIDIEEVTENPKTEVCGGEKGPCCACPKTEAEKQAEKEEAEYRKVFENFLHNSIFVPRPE
Chain of Insulin-like growth factor 1 receptor (Homo sapiens) (P08069 741-1367 limits assumed): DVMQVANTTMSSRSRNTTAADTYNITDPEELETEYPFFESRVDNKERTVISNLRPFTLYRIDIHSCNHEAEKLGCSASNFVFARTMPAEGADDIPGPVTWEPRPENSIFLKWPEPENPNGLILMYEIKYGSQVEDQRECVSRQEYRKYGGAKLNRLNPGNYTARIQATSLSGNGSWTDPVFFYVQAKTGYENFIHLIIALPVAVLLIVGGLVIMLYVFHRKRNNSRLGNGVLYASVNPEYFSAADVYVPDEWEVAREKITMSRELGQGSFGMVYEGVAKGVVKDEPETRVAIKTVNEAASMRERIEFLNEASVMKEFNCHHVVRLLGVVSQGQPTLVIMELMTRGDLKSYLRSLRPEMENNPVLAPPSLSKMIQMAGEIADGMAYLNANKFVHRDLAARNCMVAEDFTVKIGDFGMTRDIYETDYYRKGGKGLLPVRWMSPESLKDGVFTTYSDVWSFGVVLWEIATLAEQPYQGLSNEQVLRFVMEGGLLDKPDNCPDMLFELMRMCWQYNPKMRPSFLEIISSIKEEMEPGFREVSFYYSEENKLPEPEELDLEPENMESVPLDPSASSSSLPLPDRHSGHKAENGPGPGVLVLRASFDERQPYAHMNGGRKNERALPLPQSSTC

[4] = target: Fibroblast growth factor receptor 1 (Homo sapiens) (UniProt P11362); test: Inhibitory activity against FGF1R at 25 uM
Chain of Fibroblast growth factor receptor 1 (Homo sapiens) (P11362 22-822 limits assumed): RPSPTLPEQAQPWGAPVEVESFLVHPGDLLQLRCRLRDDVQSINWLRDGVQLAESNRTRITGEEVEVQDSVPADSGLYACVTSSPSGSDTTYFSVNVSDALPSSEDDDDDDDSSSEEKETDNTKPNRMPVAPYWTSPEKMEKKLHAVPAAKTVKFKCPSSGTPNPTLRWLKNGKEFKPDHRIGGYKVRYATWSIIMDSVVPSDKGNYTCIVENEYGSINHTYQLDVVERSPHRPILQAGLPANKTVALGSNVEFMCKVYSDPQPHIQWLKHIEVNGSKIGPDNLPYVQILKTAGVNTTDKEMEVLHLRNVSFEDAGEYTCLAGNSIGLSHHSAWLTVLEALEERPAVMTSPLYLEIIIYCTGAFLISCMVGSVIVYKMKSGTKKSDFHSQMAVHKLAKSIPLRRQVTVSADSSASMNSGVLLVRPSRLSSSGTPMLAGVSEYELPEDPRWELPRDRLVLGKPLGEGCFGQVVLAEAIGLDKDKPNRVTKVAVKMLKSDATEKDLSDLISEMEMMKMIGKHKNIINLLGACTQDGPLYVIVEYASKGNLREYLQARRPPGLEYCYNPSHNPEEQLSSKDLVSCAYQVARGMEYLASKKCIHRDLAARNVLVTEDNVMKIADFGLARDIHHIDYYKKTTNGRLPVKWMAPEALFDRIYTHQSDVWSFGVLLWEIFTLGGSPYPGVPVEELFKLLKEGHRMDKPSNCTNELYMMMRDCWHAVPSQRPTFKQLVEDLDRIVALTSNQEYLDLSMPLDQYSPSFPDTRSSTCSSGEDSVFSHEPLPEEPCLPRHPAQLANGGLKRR

Insulin receptor = Insulin receptor (Homo sapiens, UniProt P06213); test: Inhibitory activity against IR
[5] = target: Hepatocyte growth factor receptor (Homo sapiens) (UniProt P08581); test: Inhibitory activity against c-Met at 25 uM
[6] = target: T3, Cytoplasmic tyrosine-protein kinase BMX (Homo sapiens) (UniProt P51813); test: Inhibitory activity against ETK at 25 uM
T3 sequence (whole entry): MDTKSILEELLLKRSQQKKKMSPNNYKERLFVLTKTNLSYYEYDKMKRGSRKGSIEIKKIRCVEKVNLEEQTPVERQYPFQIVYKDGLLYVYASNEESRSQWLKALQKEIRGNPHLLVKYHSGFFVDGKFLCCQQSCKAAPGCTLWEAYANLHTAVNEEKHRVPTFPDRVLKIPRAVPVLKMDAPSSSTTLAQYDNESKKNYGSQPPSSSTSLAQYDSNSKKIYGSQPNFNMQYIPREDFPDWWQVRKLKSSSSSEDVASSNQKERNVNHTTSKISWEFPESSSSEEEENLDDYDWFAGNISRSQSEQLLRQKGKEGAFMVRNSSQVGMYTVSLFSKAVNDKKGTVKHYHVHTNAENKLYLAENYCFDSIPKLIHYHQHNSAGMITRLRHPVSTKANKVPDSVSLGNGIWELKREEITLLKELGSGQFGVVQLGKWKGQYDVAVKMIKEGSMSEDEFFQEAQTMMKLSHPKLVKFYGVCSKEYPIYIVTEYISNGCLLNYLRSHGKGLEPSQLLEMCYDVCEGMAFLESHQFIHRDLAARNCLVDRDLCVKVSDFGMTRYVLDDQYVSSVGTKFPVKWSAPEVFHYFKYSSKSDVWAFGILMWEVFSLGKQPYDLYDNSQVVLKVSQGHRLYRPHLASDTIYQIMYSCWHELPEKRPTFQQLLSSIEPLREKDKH

[7] = target: Vascular endothelial growth factor receptor 2 (Homo sapiens, UniProt P35968); test: Inhibitory activity against KDR
[8] = target: Vascular endothelial growth factor receptor 1 (Homo sapiens) (UniProt P17948); test: Inhibitory activity against FLT1 at 25 uM
Chain of Vascular endothelial growth factor receptor 1 (Homo sapiens) (P17948 whole entry): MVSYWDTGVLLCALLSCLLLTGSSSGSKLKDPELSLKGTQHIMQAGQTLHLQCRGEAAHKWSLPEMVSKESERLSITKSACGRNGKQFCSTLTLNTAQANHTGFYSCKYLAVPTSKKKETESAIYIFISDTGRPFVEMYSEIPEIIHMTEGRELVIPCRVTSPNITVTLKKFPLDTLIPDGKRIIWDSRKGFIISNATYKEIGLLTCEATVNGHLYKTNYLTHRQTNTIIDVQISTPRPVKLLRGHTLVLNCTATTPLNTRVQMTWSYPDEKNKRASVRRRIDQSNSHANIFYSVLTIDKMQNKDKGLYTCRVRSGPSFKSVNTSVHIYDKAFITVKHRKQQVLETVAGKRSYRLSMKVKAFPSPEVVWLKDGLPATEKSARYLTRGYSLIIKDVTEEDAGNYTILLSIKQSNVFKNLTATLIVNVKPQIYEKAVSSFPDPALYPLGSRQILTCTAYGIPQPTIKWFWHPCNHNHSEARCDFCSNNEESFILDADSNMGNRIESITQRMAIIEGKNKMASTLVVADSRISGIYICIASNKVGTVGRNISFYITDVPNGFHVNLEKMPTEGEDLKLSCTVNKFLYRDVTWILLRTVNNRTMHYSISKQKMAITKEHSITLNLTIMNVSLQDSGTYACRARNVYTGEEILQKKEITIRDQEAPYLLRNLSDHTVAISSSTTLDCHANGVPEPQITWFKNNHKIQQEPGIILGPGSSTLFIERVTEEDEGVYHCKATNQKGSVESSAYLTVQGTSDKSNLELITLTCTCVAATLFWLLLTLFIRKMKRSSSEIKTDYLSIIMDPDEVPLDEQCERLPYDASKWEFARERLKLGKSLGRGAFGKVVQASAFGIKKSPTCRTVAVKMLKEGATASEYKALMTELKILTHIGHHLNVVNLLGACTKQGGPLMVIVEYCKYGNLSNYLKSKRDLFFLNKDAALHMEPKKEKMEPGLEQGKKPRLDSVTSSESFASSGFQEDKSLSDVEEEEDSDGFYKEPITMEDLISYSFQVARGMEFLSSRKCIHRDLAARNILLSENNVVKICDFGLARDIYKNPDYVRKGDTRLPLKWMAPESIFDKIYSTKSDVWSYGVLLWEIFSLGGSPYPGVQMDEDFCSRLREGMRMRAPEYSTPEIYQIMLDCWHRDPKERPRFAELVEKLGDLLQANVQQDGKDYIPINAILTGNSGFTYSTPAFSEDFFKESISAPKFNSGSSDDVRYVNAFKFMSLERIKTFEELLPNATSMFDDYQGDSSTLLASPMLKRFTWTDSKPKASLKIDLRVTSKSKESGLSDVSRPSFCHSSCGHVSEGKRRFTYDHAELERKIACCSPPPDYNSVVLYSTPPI

Structure (SMILES)	IC50 (Aurora kinase A) [nM]	other results
O=C(Nc1ccc2c(c1)CNc1c(Cl)ncnc1O2)Nc1ccc(Cl)c(C(F)(F)F)c1		IC50 [1]: 13700 nM
COc1cccc2c1CNc1c(Nc3cnc(NC(=O)c4ccccc4)nc3)ncnc1O2	2200	
O=C(Nc1ncc(Nc2ncnc3c2NCc2ccccc2O3)cn1)c1ccccc1	1900	
Cc1ccc(C(=O)Nc2ncc(Nc3ncnc4c3NCc3ccccc3O4)cn2)cc1	3700	
O=C(Nc1ccc2c(c1)CNc1cnc(Cl)nc1O2)Nc1ccc(Cl)c(C(F)(F)F)c1		IC50 [1]: 900 nM
COc1ccc2c(c1)Oc1ncnc(Nc3cnc(NC(=O)c4ccccc4)nc3)c1NC2	600	
COc1ccc2c(c1)Oc1ncnc(Nc3cnc(NC(=O)c4ccc(F)cc4)nc3)c1NC2	330	
COc1cc2c(cc1OC)Oc1ncnc(Nc3cnc(NC(=O)c4ccccc4)nc3)c1NC2	470	
COc1ccc2c(c1)CNc1c(Nc3cnc(NC(=O)c4ccc(C)cc4)nc3)ncnc1O2	3500	
O=C(Nc1ccc2c(c1)C=Nc1c(Cl)ncnc1O2)Nc1ccc(Cl)c(C(F)(F)F)c1		Activity [2]: inactive; Activity [3]: inactive; IC50 [1]: 450 nM; Activity [4]: inactive; IC50 (Insulin receptor): 9500 nM; Activity [5]: inactive; Activity [6]: inactive; IC50 [7]: 9500 nM; Activity [8]: inactive
COc1cc2c(cc1OC)Oc1ncnc(Nc3cnc(NC(=O)c4ccc(C)cc4)nc3)c1NC2	1200	
COc1ccc2c(c1)CNc1c(Nc3cnc(NC(=O)c4ccccc4)nc3)ncnc1O2	970	

Continued, in another order:

IC50 (Aurora kinase A) [nM]	Structure (SMILES)	other results
> 10000	COc1cccc2c1Oc1ncnc(Nc3cnc(NC(=O)c4ccccc4)nc3)c1NC2	
1100	COc1ccc2c(c1)CNc1c(Nc3cnc(NC(=O)c4cccc(F)c4)nc3)ncnc1O2	
320	COc1ccc2c(c1)Oc1ncnc(Nc3cnc(NC(=O)c4cccc(F)c4)nc3)c1NC2	
1100	COc1cc2c(cc1OC)Oc1ncnc(Nc3cnc(NC(=O)c4cccc(F)c4)nc3)c1NC2	
5000	CCN(CC)c1ccc2c(c1)Oc1ncnc(Nc3cnc(NC(=O)c4ccccc4)nc3)c1NC2	
